Experimental data reported in PMC5750218, “Protein-inspired antibiotics active against vancomycin- and daptomycin-resistant bacteria” (Nature Communications, 2018).
≈ marks a conversion by molar mass, not a printed value.

How the values were obtained:
[1] = Cytotoxicity MTT assay; type: cell-based, human; conditions: human
Experimental: Compound cytotoxicity was evaluated against HepG2 (ATCC-®HB-8065 liver hepatoceullular carcinoma) and HEK293 (ATCC®CRL-1573, embryonic kidney) human cell lines using standard (3-(4,5-dimethylthiazol-2-yl)−2,5-diphenyltetrazolium bromide (MTT) assay protocol with slight changes. In brief, HepG2 and HEK293 cells (assessed annually for mycoplasma contamination) were seeded as 1.5 × 10^4 cells per well in a clear 96-well tissue culture treated plate in a final volume of 100 μL in Dulbecco’s Modified Eagle Medium (DMEM)(GIBCO-Invitrogen #11995-073), in which 1% of FBS was added. Cells were incubated for 24 h at 37 °C, 5% CO2 to allow cells to attach to the plates. […] After the incubation, 0.4 mg mL^−1 MTT (3-(4,5-dimethylthiazol-2-yl)−2,5-diphenyltetrazolium bromide) (Invitrogen) was added to each well. The plates were then incubated for 2 h at 37 °C, 5% CO2. The media was removed, and purple formazan crystals were resuspended in 60 μL of DMSO. The absorbance was read at 570 nm using a Polarstar Omega plate reader. The data was then analysed by Prism software. Results are presented as the average percentage of control ± S.D. for each set of duplicate wells using the following equation: percent viability = (ABSTEST – ABSPOSITIVE CTRL / ABSUNTREATED –ABS POSITIVE CTRL)×100.

[2] = Cytotoxicity MTT assay; type: cell-based, human; conditions: human; remark: listed apart in the source
Experimental: Compound cytotoxicity was evaluated against HepG2 (ATCC-®HB-8065 liver hepatoceullular carcinoma) and HEK293 (ATCC®CRL-1573, embryonic kidney) human cell lines using standard (3-(4,5-dimethylthiazol-2-yl)−2,5-diphenyltetrazolium bromide (MTT) assay protocol with slight changes. In brief, HepG2 and HEK293 cells (assessed annually for mycoplasma contamination) were seeded as 1.5 × 10^4 cells per well in a clear 96-well tissue culture treated plate in a final volume of 100 μL in Dulbecco’s Modified Eagle Medium (DMEM)(GIBCO-Invitrogen #11995-073), in which 1% of FBS was added. Cells were incubated for 24 h at 37 °C, 5% CO2 to allow cells to attach to the plates. Compounds prepared at 100 µM to 0.046 µM in threefold dilutions were added into each well and incubated for 24 h at 37 °C, 5% CO2. After the incubation, 0.4 mg mL^−1 MTT (3-(4,5-dimethylthiazol-2-yl)−2,5-diphenyltetrazolium bromide) (Invitrogen) was added to each well. The plates were then incubated for 2 h at 37 °C, 5% CO2. The media was removed, and purple formazan crystals were resuspended in 60 μL of DMSO. The absorbance was read at 570 nm using a Polarstar Omega plate reader. The data was then analysed by Prism software. Results are presented as the average percentage of control ± S.D. for each set of duplicate wells using the following equation: percent viability = (ABSTEST – ABSPOSITIVE CTRL / ABSUNTREATED –ABS POSITIVE CTRL)×100.

[3] = tested on: Methicillin-resistant S. aureus ATCC 43300; experiment: microbe, parasite or virus in culture; conditions: ATCC 43300, 24 h
Experimental: (§1) Antimicrobial activity of compounds was tested against a number of bacterial strains by broth microdilution (BMD) assay with MIC determination, including S. aureus (MSSA ATCC® 29213™, MRSA ATCC® 43300™, VISA NARSA NRS1, VISA NARSA NRS4), Streptococcus pneumoniae (MDR ATCC® 700677™) and Enterococcus faecium (MDR VanA ATCC® 51559™). ATCC strains were sourced from the American Type Culture Collection and NRS strains from NARSA (Network on Antimicrobial Resistance in S. aureus) via BEI Resources (www.beiresources.org). All compounds were prepared to 160 µg mL^−1 solution in water from a stock solution of 1 mM concentration.
[…] […] Standards ranged from 64 to 0.03 µg mL^−1 and compounds from 8 to 0.003 µg mL^−1 with final assay volumes of 100 µL per well. Gram-positive bacteria were cultured in Mueller Hinton broth (MHB) (Bactolaboratories, Cat. no. 211443) at 37 °C overnight. A sample of each culture was then diluted 40-fold in fresh MHB and incubated at 37 °C for 2–3 h. […] All the plates were covered and incubated at 37 °C for 24 h. MICs were the lowest concentration showing no visible growth.

[4] = tested on: Vancomycin-resistant (VanA) Enterococcus faecium ATCC 51559; experiment: microbe, parasite or virus in culture; conditions: ATCC 51559
Experimental: as §1
(§2) The compounds, along with standard antibiotics were serially diluted twofold across the wells of 96-well non-binding surface (NBS) polystyrene plates (Corning 3641). […] Standards ranged from 64 to 0.03 µg mL^−1 and compounds from 8 to 0.003 µg mL^−1 with final assay volumes of 100 µL per well. Gram-positive bacteria were cultured in Mueller Hinton broth (MHB) (Bactolaboratories, Cat. no. 211443) at 37 °C overnight. A sample of each culture was then diluted 40-fold in fresh MHB and incubated at 37 °C for 2–3 h. […] All the plates were covered and incubated at 37 °C for 24 h. MICs were the lowest concentration showing no visible growth.

[5] = tested on: Multi-drug-resistant S. pneumoniae ATCC 700677; experiment: microbe, parasite or virus in culture; conditions: ATCC 700677
Experimental: as §1, §2

[6] = tested on: Vancomycin-intermediate S. aureus NRS1; experiment: microbe, parasite or virus in culture; conditions: Vancomycin-intermediate NRS1
Experimental: as §1, §2

| Compound | CC50 at 24 h [1] [µM] | CC50 at 24 h [2] [µM] | MIC MRSA [3] [µg/mL] | MIC VRE [4] [µg/mL] | MIC MDR S.P. [5] [µg/mL] | MIC VISA [6] [µg/mL] |
| --- | --- | --- | --- | --- | --- | --- |
| CCCCCCCCCCCCCC(=O)NCC(=O)N[C@@H](CO)C(=O)N[C@@H](CO)C(=O)N[C@@H](CCCCN)C(=O)N[C@@H](CO)C(=O)N1CCC[C@H]1C(=O)N[C@@H](CO)C(=O)N[C@@H](CCCCN)C(=O)N[C@@H](CCCCN)C(=O)N[C@@H](CCCCN)C(=O)N1CCC[C@H]1C(=O)NCC(=O)N[C@@H](CC(=O)O)C(=O)N[C@@H](CSSCCNC(=O)[C@H]1NC(=O)[C@H]2NC(=O)[C@H](NC(=O)[C@@H]3NC(=O)[C@H](CC(N)=O)NC(=O)[C@H](NC(=O)[C@@H](CC(C)C)NC)[C@H](O)c4ccc(c(Cl)c4)Oc4cc3cc(c4O[C@@H]3O[C@H](CO)[C@@H](O)[C@H](O)[C@H]3O[C@H]3C[C@](C)(N)[C@H](O)[C@H](C)O3)Oc3ccc(cc3Cl)[C@H]2O)c2ccc(O)c(c2)-c2c(O)cc(O)cc21)C(N)=O [Compound 11] | 9 | 18 | 0.16 (≈ 0.0513 µM) | 0.125 (≈ 0.04 µM) | 0.09 (≈ 0.0288 µM) | 0.5 (≈ 0.16 µM) |
| CCCCCCCCCC(=O)NCC(=O)N[C@@H](CO)C(=O)N[C@@H](CO)C(=O)N[C@@H](CCCCN)C(=O)N[C@@H](CO)C(=O)N1CCC[C@H]1C(=O)N[C@@H](CO)C(=O)N[C@@H](CCCCN)C(=O)N[C@@H](CCCCN)C(=O)N[C@@H](CCCCN)C(=O)N[C@@H](CCCCN)C(=O)N[C@@H](CCCCN)C(=O)N[C@@H](CCCCN)C(=O)N1CCC[C@H]1C(=O)NCC(=O)N[C@@H](CC(=O)O)C(=O)N[C@@H](CSSCCNC(=O)[C@H]1NC(=O)[C@H]2NC(=O)[C@H](NC(=O)[C@@H]3NC(=O)[C@H](CC(N)=O)NC(=O)[C@H](NC(=O)[C@@H](CC(C)C)NC)[C@H](O)c4ccc(c(Cl)c4)Oc4cc3cc(c4O[C@@H]3O[C@H](CO)[C@@H](O)[C@H](O)[C@H]3O[C@H]3C[C@](C)(N)[C@H](O)[C@H](C)O3)Oc3ccc(cc3Cl)[C@H]2O)c2ccc(O)c(c2)-c2c(O)cc(O)cc21)C(N)=O [Compound 6] | > 100 | > 100 | 2.5 (≈ 0.725 µM) | 1.25 (≈ 0.362 µM) | 3 (≈ 0.87 µM) | >8 |
| CCCCCCCCCCCCCC(=O)NCC(=O)N[C@@H](CO)C(=O)N[C@@H](CO)C(=O)N[C@@H](CCCCN)C(=O)N[C@@H](CO)C(=O)N1CCC[C@H]1C(=O)N[C@@H](CO)C(=O)N[C@@H](CCCCN)C(=O)N[C@@H](CCCCN)C(=O)N[C@@H](CCCCN)C(=O)N1CCC[C@H]1C(=O)N[C@@H](CSSCCNC(=O)[C@H]1NC(=O)[C@H]2NC(=O)[C@H](NC(=O)[C@@H]3NC(=O)[C@H](CC(N)=O)NC(=O)[C@H](NC(=O)[C@@H](CC(C)C)NC)[C@H](O)c4ccc(c(Cl)c4)Oc4cc3cc(c4O[C@@H]3O[C@H](CO)[C@@H](O)[C@H](O)[C@H]3O[C@H]3C[C@](C)(N)[C@H](O)[C@H](C)O3)Oc3ccc(cc3Cl)[C@H]2O)c2ccc(O)c(c2)-c2c(O)cc(O)cc21)C(N)=O [Compound 12] | 26 | 41 | 0.09 (≈ 0.0305 µM) | 0.007 (≈ 0.00237 µM) | 0.06 (≈ 0.0203 µM) | 0.5 (≈ 0.17 µM) |
| CCCCCCCCCCCC(=O)NCC(=O)N[C@@H](CO)C(=O)N[C@@H](CO)C(=O)N[C@@H](CCCCN)C(=O)N[C@@H](CO)C(=O)N1CCC[C@H]1C(=O)N[C@@H](CO)C(=O)N[C@@H](CCCCN)C(=O)N[C@@H](CCCCN)C(=O)N[C@@H](CCCCN)C(=O)N[C@@H](CCCCN)C(=O)N[C@@H](CCCCN)C(=O)N[C@@H](CCCCN)C(=O)N1CCC[C@H]1C(=O)NCC(=O)N[C@@H](CC(=O)O)C(=O)N[C@@H](CSSCCNC(=O)[C@H]1NC(=O)[C@H]2NC(=O)[C@H](NC(=O)[C@@H]3NC(=O)[C@H](CC(N)=O)NC(=O)[C@H](NC(=O)[C@@H](CC(C)C)NC)[C@H](O)c4ccc(c(Cl)c4)Oc4cc3cc(c4O[C@@H]3O[C@H](CO)[C@@H](O)[C@H](O)[C@H]3O[C@H]3C[C@](C)(N)[C@H](O)[C@H](C)O3)Oc3ccc(cc3Cl)[C@H]2O)c2ccc(O)c(c2)-c2c(O)cc(O)cc21)C(N)=O [Compound 7] | 65 | 89 | 0.09 (≈ 0.0259 µM) | 0.02 (≈ 0.00575 µM) | 0.06 (≈ 0.0173 µM) | 1 (≈ 0.288 µM) |
| CCCCCCCCCCCCCCCC(=O)NCC(=O)N[C@@H](CO)C(=O)N[C@@H](CO)C(=O)N[C@@H](CCCCN)C(=O)N[C@@H](CO)C(=O)N1CCC[C@H]1C(=O)N[C@@H](CO)C(=O)N[C@@H](CCCCN)C(=O)N[C@@H](CCCCN)C(=O)N[C@@H](CCCCN)C(=O)N[C@@H](CCCCN)C(=O)N[C@@H](CCCCN)C(=O)N[C@@H](CCCCN)C(=O)N1CCC[C@H]1C(=O)NCC(=O)N[C@@H](CC(=O)O)C(=O)N[C@@H](CSSCCNC(=O)[C@H]1NC(=O)[C@H]2NC(=O)[C@H](NC(=O)[C@@H]3NC(=O)[C@H](CC(N)=O)NC(=O)[C@H](NC(=O)[C@@H](CC(C)C)NC)[C@H](O)c4ccc(c(Cl)c4)Oc4cc3cc(c4O[C@@H]3O[C@H](CO)[C@@H](O)[C@H](O)[C@H]3O[C@H]3C[C@](C)(N)[C@H](O)[C@H](C)O3)Oc3ccc(cc3Cl)[C@H]2O)c2ccc(O)c(c2)-c2c(O)cc(O)cc21)C(N)=O [Compound 9] | 4 | 7 | 0.06 (≈ 0.017 µM) | 8 (≈ 2.26 µM) | 0.125 (≈ 0.0354 µM) | 2 (≈ 0.566 µM) |
| CCCCCCCCCCCCCC(=O)NCC(=O)N[C@@H](CO)C(=O)N[C@@H](CCCCN)C(=O)N[C@@H](CCCCN)C(=O)N[C@@H](CCCCN)C(=O)N[C@@H](CCCCNC(=O)[C@H]1NC(=O)[C@H]2NC(=O)[C@H](NC(=O)[C@@H]3NC(=O)[C@H](CC(N)=O)NC(=O)[C@H](NC(=O)[C@@H](CC(C)C)NC)[C@H](O)c4ccc(c(Cl)c4)Oc4cc3cc(c4O[C@@H]3O[C@H](CO)[C@@H](O)[C@H](O)[C@H]3O[C@H]3C[C@](C)(N)[C@H](O)[C@H](C)O3)Oc3ccc(cc3Cl)[C@H]2O)c2ccc(O)c(c2)-c2c(O)cc(O)cc21)C(=O)O [Compound 16, nC13CO-GSKKK-K(Vancomycin)-OH] | 18 | 53 | 0.06 (≈ 0.0259 µM) |  | <0.003 | 0.007 (≈ 0.00302 µM) |
